In experiment [1] the test system is HCT-116. Put plainly: Cytotoxicity against human HCT-116 cells assessed as reduction in cell viability by SRB assay. It counts as functional, cell-based.
For experiment [2], the system named is HepG2. Put plainly: Cytotoxicity against human HepG2 cells assessed as reduction in cell viability by SRB assay. It counts as functional, cell-based. For orientation: The SRB assay estimates cell density from bound dye.
In experiment [3] the test system is WI-38. Description: Cytotoxicity against human WI-38 cells assessed as reduction in cell viability by SRB assay. It counts as cell-based.
The test system of experiment [4] is MCF7. Put plainly: cells. The conditions noted are these: Homo sapiens.
Description: Cytotoxicity against human MCF7 cells assessed as reduction in cell viability by SRB assay
Experiment [5] concerns the target Epidermal growth factor receptor (Homo sapiens, UniProt P00533). Description: Inhibition of EGFR (unknown origin) by FRET assay.
In experiment [6] the test system is HepG2. Put plainly: Induction of apoptosis in human HepG2 cells assessed as early apoptotic cells at 5 uM incubated for 24 hrs by annexin V-FITC and PI staining based flow cytometry analysis (reference value: 0.87 %). It counts as functional.
For experiment [7], the system named is HepG2. Description: Induction of apoptosis in human HepG2 cells assessed as late apoptotic cells at 5 uM incubated for 24 hrs by annexin V-FITC and PI staining based flow cytometry analysis (reference value: 0.56 %). The format is functional.
Experiment [8] concerns HepG2. Description: Induction of apoptosis in human HepG2 cells assessed as necrotic cells at 5 uM incubated for 24 hrs by annexin V-FITC and PI staining based flow cytometry analysis (reference value: 0.43 %). It counts as functional. For orientation: A flow cytometer gives signals particle by particle.
Experiment [9] relates to HepG2. Put plainly: Induction of apoptosis in human HepG2 cells at 5 uM incubated for 24 hrs by annexin V-FITC and PI staining based flow cytometry analysis (reference value: 1.86 %). The format is functional.
Experiment [10] relates to HepG2. Description: Induction of cell cycle arrest in human HepG2 cells assessed as G0/G1 phase accumulation by flow cytometry analysis (reference value: 57.36 %). The format is functional.
In experiment [11] the test system is HepG2. Description: Induction of cell cycle arrest in human HepG2 cells assessed as S phase accumulation by flow cytometry analysis (reference value: 36.22 %). The format is functional.
The subject of experiment [12] is HepG2. Put plainly: Induction of cell cycle arrest in human HepG2 cells assessed as G2/M phase accumulation by flow cytometry analysis (reference value: 6.32 %). It counts as functional.
The subject of experiment [13] is HepG2. Put plainly: Induction of cell cycle arrest in human HepG2 cells assessed as preG1 phase accumulation by flow cytometry analysis (reference value: 1.86 %). The format is functional.
Experiment [14] relates to HepG2. Description: Induction of apoptosis in human HepG2 cells assessed as Bax level (reference value: 27.35 pg/ml). It counts as functional.
In experiment [15] the test system is HepG2. Put plainly: Induction of apoptosis in human HepG2 cells assessed as Bcl2 level (reference value: 6.639 pg/ml). The format is functional.

Chain of Epidermal growth factor receptor (P00533 whole entry): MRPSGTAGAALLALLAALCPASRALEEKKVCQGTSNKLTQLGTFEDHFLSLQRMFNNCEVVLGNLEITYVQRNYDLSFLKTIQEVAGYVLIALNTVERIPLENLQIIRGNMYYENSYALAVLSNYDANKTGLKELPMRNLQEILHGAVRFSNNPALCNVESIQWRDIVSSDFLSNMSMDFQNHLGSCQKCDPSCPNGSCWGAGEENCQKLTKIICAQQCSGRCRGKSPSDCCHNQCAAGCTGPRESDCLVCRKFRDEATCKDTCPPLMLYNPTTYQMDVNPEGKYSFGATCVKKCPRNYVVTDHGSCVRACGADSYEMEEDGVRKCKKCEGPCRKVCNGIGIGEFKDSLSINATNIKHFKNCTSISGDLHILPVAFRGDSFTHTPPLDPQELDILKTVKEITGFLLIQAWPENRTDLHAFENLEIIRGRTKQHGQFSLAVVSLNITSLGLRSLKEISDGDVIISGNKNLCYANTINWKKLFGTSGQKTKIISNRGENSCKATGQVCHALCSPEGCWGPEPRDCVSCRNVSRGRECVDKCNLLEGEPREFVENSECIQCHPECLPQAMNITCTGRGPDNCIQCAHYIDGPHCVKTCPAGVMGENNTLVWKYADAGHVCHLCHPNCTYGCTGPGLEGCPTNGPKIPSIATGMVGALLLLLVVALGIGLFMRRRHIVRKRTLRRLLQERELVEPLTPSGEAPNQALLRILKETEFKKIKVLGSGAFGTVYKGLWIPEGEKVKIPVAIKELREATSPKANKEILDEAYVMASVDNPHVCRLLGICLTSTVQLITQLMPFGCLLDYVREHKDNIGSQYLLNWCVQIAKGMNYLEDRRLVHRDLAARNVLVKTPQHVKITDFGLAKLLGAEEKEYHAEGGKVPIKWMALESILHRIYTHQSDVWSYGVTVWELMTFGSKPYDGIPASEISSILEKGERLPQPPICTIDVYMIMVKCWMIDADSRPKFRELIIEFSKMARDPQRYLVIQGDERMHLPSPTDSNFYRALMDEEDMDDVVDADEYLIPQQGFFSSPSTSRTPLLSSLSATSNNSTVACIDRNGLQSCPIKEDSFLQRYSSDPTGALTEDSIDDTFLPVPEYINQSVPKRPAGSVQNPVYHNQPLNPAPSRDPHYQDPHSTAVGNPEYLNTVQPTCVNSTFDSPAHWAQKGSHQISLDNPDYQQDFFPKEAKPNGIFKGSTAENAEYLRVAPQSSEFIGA

On to `NS(=O)(=O)c1ccc(NC(=S)Nc2ccc3c(c2)OCO3)cc1`, for which the IC50 (as a rule, the concentration needed to halve the response being measured) in experiment [1] was 86.3 µM; in experiment [2], 95.7 µM; in [3], 325 µM; in [4] it was 103 µM.

With `O=C(c1ccccc1)c1ccccc1NC(=S)Nc1ccc2c(c1)OCO2`, the IC50 in experiment [1] worked out at 171 µM; in experiment [2] it was 167 µM; in [3] it was 435 µM; in experiment [4], 179 µM.

Consider `N=C(N)NS(=O)(=O)c1ccc(NC(=S)Nc2ccc3c(c2)OCO3)cc1`, for which the IC50 in experiment [1] stood at 127 µM; in experiment [2] it was 132 µM; in experiment [3], 364 µM; in experiment [4], 160 µM.

Take `Cc1c(NC(=S)Nc2ccc3c(c2)OCO3)c(=O)n(-c2ccccc2)n1C`: the IC50 was 3.16 µM in experiment [1]; 3.79 µM in experiment [2]; 176 µM in [3]; 0.358 µM in experiment [5]; 17 µM in experiment [4]. The Activity in experiment [6] is 7.28%; in experiment [7], 10.62%; in experiment [8], 2.53%; in experiment [9], 20.43%; in [10] it was 29.15%; in experiment [11], 30.21%. In addition, the Activity in experiment [12] stood at 40.64%; in experiment [13] it was 20.43%; in experiment [14] it was 215.8 pg/mL; in [15], 3.374 pg/mL.

As for `S=C(NNc1ccccc1)Nc1ccc2c(c1)OCO2`, the IC50 in [1] stood at 1.11 µM; in experiment [2], 1.74 µM; in [3], 271 µM; in experiment [5] it was 8.26 µM; in experiment [4] it was 7 µM.

Turning to `O=S(=O)(NNC(=S)Nc1ccc2c(c1)OCO2)c1ccccc1`, the IC50 in [1] was found to be 10 µM; in experiment [2], 11.7 µM; in experiment [3], 207 µM; in experiment [4] it was 17.6 µM.

Consider `O=C1c2ccccc2C(=O)N1NC(=S)Nc1ccc2c(c1)OCO2`, for which the IC50 in experiment [1] was 55.4 µM; in [2], 59.1 µM; in experiment [3], 287 µM; in experiment [4], 68.9 µM.

As for `O=C(NNC(=S)Nc1ccc2c(c1)OCO2)c1ccncc1`, the IC50 in [1] came out at 5.63 µM; in experiment [2], 11.6 µM; in [3] it was 184 µM; in experiment [4], 25.2 µM.

`S=C(Nc1ccc2c(c1)OCO2)Nc1c2ccccc2nc2ccccc12`: the 50% inhibitory concentration (IC50) in [1] came out at 1.71 µM; in experiment [2], 2.14 µM; in [3], 227 µM; in [5] it was 0.493 µM; in [4], 4.63 µM. Moreover, the Activity in [6] was 6.14%; in experiment [7], 8.68%; in [8], 2.43%; in [9] it was 17.25%; in experiment [10], 37.12%; in [11], 25.52%. Besides, the Activity in [12] turned out to be 37.36%; in [13], 17.25%; in experiment [14], 201.7 pg/mL; in experiment [15] it was 4.147 pg/mL.

As for `S=C(NN=C(c1ccccc1)c1ccccc1)Nc1ccc2c(c1)OCO2`, the IC50 in [1] turned out to be 2.4 µM; in experiment [2] it was 5.76 µM; in experiment [3], 192 µM; in [5], 0.993 µM; in [4], 10.8 µM.

`O=S(=O)(Nc1ccccn1)c1ccc(NC(=S)Nc2ccc3c(c2)OCO3)cc1`: the IC50 amounted to 4.78 µM in experiment [1]; 7.03 µM in [2]; 189 µM in experiment [3]; 1.89 µM in experiment [5]; 13.4 µM in [4].

As for `O=S(=O)(Nc1nccs1)c1ccc(NC(=S)Nc2ccc3c(c2)OCO3)cc1`, the IC50 in experiment [1] is 2.53 µM; in experiment [2] it was 2.99 µM; in experiment [3] it was 201 µM; in experiment [5] it was 1.62 µM; in experiment [4], 11.7 µM.

These data come from ChEMBL document CHEMBL4765304, “Synthesis and anticancer activity of thiourea derivatives bearing a benzodioxole moiety with EGFR inhibitory activity, apoptosis assay and molecular docking study” (Eur J Med Chem, 2020).
